These results are taken from patent US20260021186A1, “Fatty Acid-D-Amino Acid Peptides Conjugates as Anaplerotic Compounds for Use in Treating Propionic Acidemia, Methylmalonic Acidurias, and Energy Metabolic Disorders” (University of Pittsburgh - Of the Commonwealth System of …, priority 2022, published 2026).

For experiment [1], the system named is Fb859 propionic acidemia patient fibroblasts. The experiment in a line: Lysine succinylation of cellular proteins by immunofluorescence confocal microscopy. The experiment is classed as cell-based, human. Conditions: media without glucose; for lysine succinylation (green) signal: FIGS. 8A-8F, 30 μM and 90 μM, pyruvate, glutamine, stripped FBS; for lysine succinylation (green staining) compared to untreated cells: FIG. 7, 90 μM, 72 hours, glutamine or pyruvate, lipid stripped FBS. Here is the method: FIG. 7 are immunocytochemistry photomicrographs showing the effect of incubation of Fb859 propionic acidemia patient fibroblasts on for lysine succinylation with 90 μM of PMA010, 90 μM of PMA011, 90 μM of succinic acid, 90 μM of methylmalonic acid, or 90 μM adipic acid for 72 hours. Immunocytochemistry of the fibroblast cells were stained for anti-succinyllysine antibody, anti-MTCO1 antibody and DAPI for nuclei. Instrument: Zeiss LSM 710 confocal Microscopy. Magnification: 40×. The cells were grown in glass coverslips at a seeding density of 3-5×10^4 cells. The media for untreated and treatment groups had no glucose, glutamine or pyruvate, and lipid stripped FBS was included instead of regular FBS. Scale bar=20 μm.
FIGS. 8A-8F are a comparison of lysine succinylation of cellular proteins visualized by immunofluorescence confocal microscopy in a Propionic Acidemia (Fb859) patient untreated (FIG. 8A) and treated with 30 μM and 90 μM of D-Serine (FIG. 8B), 30 µM and 90 μM of PMA007 (FIG. 8C), or 30 μM and 90 μM of PMA010 (FIG. 8D). Scale bar=20 μm. FIG. 8E is a bar graph showing the quantification of the percent change in lysine succinylation (green) signal, from the immunofluorescence confocal micrographs of FIGS. 8B and 8C, in response to the treatment of D-serine and PMA007. FIG. 8F is a bar graph showing the quantification of the percent change in lysine succinylation (green) signal, from the immunofluorescence confocal micrographs of a D-Serine repeat experiment and FIG. 8D, in response to the treatment of D-serine and PMA010. Asterisks indicate statistical significance calculated at the raw data level (n=3); **P<0.01, ***P<0.001, ****P<0.0001 statistically compared to untreated. Statistical analysis used T-test.
Immunohistochemistry: Patient cells were grown in glass coverslips at a seeding density of 3-5×10^4 cells. The media for untreated and treatment groups had no glucose, glutamine or pyruvate, and lipid stripped FBS was included instead of regular FBS. NIH Image J software was used to quantify the fluorescence intensity from 50-60 cells per group. Immunocytochemistry of propionic acidemia patient (Fb859) fibroblast cells lines stained for anti-succinyllysine (Green), anti-MTCO1 (Red), or anti-TOMM20 antibodies, and DAPI (Blue) for nuclei. Instrument: Zeiss LSM 710 confocal Microscopy. Statistical analysis used Tukey multiple range test. ****P<0.0001, [PMA010] (90 μM) treatment group statistically compared to control cells grown in the presence of regular complete DMEM media, untreated and [PMA010] (30 μM) cells grown in the absence of glucose/pyruvate/L-glutamine.

For a further experiment, the system named is rat liver mitochondrial. Conditions: in vitro; cited from earlier work.
In another experiment the test system is HEK293 PCCA−/− cells. The experiment is described as follows: Lysine succinylation of cellular proteins by immunofluorescence confocal microscopy. It counts as cell-based, human. To be noted: FIGS. 9C, 9D; 30 μM and 90 μM; media without glucose, pyruvate, and glutamine. The method, then:
FIGS. 9A-9F are a comparison of lysine succinylation of cellular proteins visualized by immunofluorescence confocal microscopy in human HEK293 control and HEK293 PCCA^−/− cells untreated (FIGS. 9A and 9B) and treated with 30 μM and 90 μM of PMA007 (FIG. 9C) or 30 μM and 90 μM of PMA010 (FIG. 9D). The cells in FIGS. 9B, 9C, and 9D were grown in media without glucose, pyruvate, and glutamine. Scale bar=20 μm. FIG. 9E is a bar graph showing the quantification of the percent change in lysine succinylation (green) signal, from the immunofluorescence confocal micrographs of FIGS. 9B and 9C, in response to the treatment of PMA007. FIG. 9F is a bar graph showing the quantification of the percent change in lysine succinylation (green) signal, from the immunofluorescence confocal micrographs of FIGS. 9B and 9D, in response to the treatment of PMA010. Asterisks indicate statistical significance calculated at the raw data level (n=3); **P<0.01. ****P<0.0001 statistically compared to untreated. Statistical analysis used T-test.
FIGS. 9A-9F are a comparison of lysine succinylation of cellular proteins visualized by immunofluorescence confocal microscopy in human HEK293 control and in untreated and treated HEK293 PCCA^−/− knock out cells. […] The PMA007 treatment data in the bar graph of FIG. 9E are the quantitation of the images of FIG. 9C compared to untreated control in FIG. 9B. […]

Another experiment concerns PA patient cells, Fb859. The experiment in a line: Measurement of mitochondrial respiration (Seahorse XF MitoStress test, OCR). It counts as cell-based, human. To be noted: FIGS. 12A-12D; 30 μM and 90 μM for 72 h. Here is the method:
Measurement of Mitochondrial Respiration Seahorse: Fb859 cells were grown in regular DMEM media until 85-90% confluency. The cells were harvested and seeded at a concentration of 25,000 cells/80 μl (n=8 replicates) in poly-D lysine coated XFe seahorse 96well plate in regular DMEM media and incubated overnight at 37° C. in a 5% CO2 incubator. Following day, the culture media was replaced in designated wells with the following for 72 h:180 μl of Specialty Media A (seahorse XFDMEM base media+10% fat stripped FBS+Glucose+sodium pyruvate+L-glutamine+0.5 mM carnitine). 180 μl of Specialty Media B (scahorse XFDMEM base media+10% stripped FBS+0.5 mM carnitine and no added glucose, sodium pyruvate or glutamine). 180 μl of Specialty media B containing experimental compounds. After 72 h incubation the Specialty media A & B was replaced in respective designated wells with 180 μL Seahorse XF DMEM base media containing glucose, sodium pyruvate. […] OCR was determined (Seahorse XF MitoStress test). Finally, cells were lysed, and protein content was determined. […]
Measurement of Mitochondrial Respiration: Control Fb826 and Patient Fb859 cells were grown in regular DMEM media without adding extra glutamine until 85-90% confluency. […] Oxygen consumption rate (OCR) was determined (Seahorse XF MitoStress test). Finally, cells were lysed, and protein content was determined. […]

The subject of experiment [2] is glutaric acidemia II (GA II) fibroblast cell line Fb930. The experiment in a line: Mitochondrial ROS production using MitoSOX Red. It counts as cell-based, human. Conditions: FIG. 15D; 600 and 1200 μM, 72 h; preliminary test. From the text: (§1) FIGS. 15A-15D are graphs showing the measurement of mitochondrial reactive oxygen species (ROS) production using MitoSOX Red as Superoxide indicator probe. FIG. 15A is a graph showing control fibroblast cell line FB826 treated with PMA010, PMA011, PMA019, and PMA020. FIG. 15B is a graph showing propionic acidemia (PA) patients' fibroblast cell linc Fb859 treated with PMA010, PMA011, PMA019, and PMA020. FIG. 15C is a graph showing propionic acidemia (PA) patients' fibroblast cells line Fb900 treated with PMA010, PMA011, PMA019, and PMA020. FIG. 15D is a graph comparing ROS production levels in response to treatment with PMA011 in Control fibroblast cell line (FB826), PA fibroblast cell line (Fb900), and glutaric acidemia II (GA II) patient fibroblast cell lines (Fb930, Fb961). Data are the average of readings from 3 replicate wells.
(§2) Measurement of mitochondrial ROS production using MitoSOX Red as superoxide indicator probe: control (Fb826), PA patient (Fb859, Fb900) and GA II patient (Fb930, Fb961) fibroblasts were grown in regular DMEM media containing glucose/pyruvate/L-glutamine until 85-90% confluency. The cells were harvested and seeded at a concentration of 25,000 cells/80 μl (n=3) in cell culture treated black wall 96 well microplate with clear bottom in regular DMEM media containing glucose/pyruvate/L-glutamine and incubated overnight at 37° C. in a 5% CO2 incubator. Following day, the culture media was replaced in designated wells with the following for 72 h: 150 μl regular DMEM (Glucose+10% FBS+sodium pyruvate+L-glutamine+0.5 mM carnitine). 150 μl of Regular DMEM containing experimental compounds (180 and 640 μM) PMA010 or PMA011 or PMA 019 and (640 μM) PMA020 in control and propionic acidemia patient fibroblasts. 150 μl of regular DMEM containing experimental compounds (600 and 1200 μM) PMA011 in Fb930 and (1200 μM) PMA011 in Fb961 GA II patient fibroblast. After 72 h incubation the wells were washed twice with 150 μL of Seahorse XFDMEM base media and in respective designated wells the following Assay buffer (150 μL of seahorse XFDMEM base media containing glucose, sodium pyruvate and Glutamine) was used along with 5 μM MitoSOX reagent and incubated at 37° C. non-CO2 incubator for 15 minutes protected from light. After 15 minutes incubation the cells were washed twice with 150 μL of seahorse XFDMEM base media and replaced with measurement buffer, which is same as the wash buffer. The fluorescence was monitored with excitation at 520 nm and emission at 580 nm. Finally, cells were lysed, and protein content was determined. Data is normalized to protein concentration and fluorescence is reported as MitoSOX Red (AFU)/mg protein.

Experiment [3] concerns glutaric acidemia II (GA II) fibroblast cell line Fb961. The experiment is described as follows: Mitochondrial ROS production using MitoSOX Red. It counts as cell-based, human. Conditions: FIG. 15D; 1200 μM, 72 h; preliminary test.
Description: as §1, §2

Experiment [4] concerns propionic acidemia (PA) fibroblast cell line Fb900. The experiment is described as follows: Mitochondrial ROS production using MitoSOX Red. The experiment is classed as cell-based, human. Conditions: FIG. 15C; 180 and 640 μM, 72 h.
Description: as §1, §2

For a further experiment, the system named is PA patients. Conditions: clinical study initiated in 2008; cited from earlier work.

The structures appear in SMILES notation.

Consider `N[C@H](CO)C(=O)O` [D-serine, reference compound], for which the “lysine succinylation (green) signal” value in experiment [1] was “Restoration of lysine succinylation (green) signal”.
Consider `O=C(O)C[C@H](O)C(=O)O` [L-malate], for which, in the experiment on rat liver mitochondrial, the “reduction of propionate level” value was 46% and the “reduction of propionyl-CoA levels in the mitochondrial matrix” value is reported as 62%.
Turning to `N[C@H](COC(=O)CCCCC(=O)O)C(=O)N[C@@H](Cc1c[nH]cn1)C(=O)O` [PMA007, 6-((R)-2-amino-3-(((S)-1-carboxy-2-(1H-imidazol-4-yl)ethyl)amino)-3-oxopropoxy)-6-oxohexanoic acid], the “lysine succinylation (green) signal” value in experiment [1] is “Restoration of lysine succinylation (green) signal”; in the experiment with HEK293 PCCA−/− cells, “green color was restored”. Also, in the experiment on PA patient cells, Fb859, the “oxygen consumption parameters compared to individual components D-Serine and D-Histidine” value is recorded as “improved”.
On to `CC(C(=O)O)C(=O)N[C@H](C)C(=O)N[C@H](Cc1c[nH]cn1)C(=O)O` (stereo partly drawn) [PMA011, 3-(((R)-1-(((R)-1-carboxy-2-(1H-imidazol-4-yl)ethyl)amino)-1-oxopropan-2-yl)amino)-2-methyl-3-oxopropanoic acid], for which, in experiment [1], the “lysine succinylation (green staining) compared to untreated cells” value was “obvious increase in the green staining”. In addition, the “ROS detected (MitoSOX Red) compared to no treatment” value in experiment [2] and in experiment [3] was “significant decrease in ROS” in each case. Also, the “ROS detected (MitoSOX Red)” value in experiment [4] is reported as “similarly effective”.
As to `O=C(O)CCCCC(=O)O` [adipic acid, reference compound], the “lysine succinylation (green staining) compared to untreated cells” value in experiment [1] was “obvious increase in the green staining”.
In the case of `O=C(O)CC(O)(CC(=O)O)C(=O)O` [citrate], the “clinical benefit of supplementation” value in the experiment on PA patients is “can be beneficial in some cases”.
Turning to `CC(C(=O)O)C(=O)O` [methylmalonic acid], in experiment [1], the “lysine succinylation (green staining) compared to untreated cells” value was “obvious increase in the green staining”.
In the case of `O=C(O)CCC(=O)O` [succinic acid, reference compound], the “lysine succinylation (green staining) compared to untreated cells” value in experiment [1] is “obvious increase in the green staining”.
